According to ChEMBL document CHEMBL1126299, “Synthesis and structure-activity relationships of cephalosporins with C-3' catechol-containing residues” (J Med Chem, 1992):
Converted amounts (≈) assume the structure as drawn.

system: Enterobacter cloacae; experiment: microbe, parasite or virus in culture
Description: Minimum inhibitory concentration in Enterobacter cloacae, P99- inducible type 1 lactamase producer

| Structure (SMILES) | MIC [µg/mL] |
| --- | --- |
| CCO/N=C(\C(=O)N[C@@H]1C(=O)N2C(C(=O)O)=C(CNC(=O)c3cn(CC)c4cc(O)c(O)cc4c3=O)CSC12)c1csc(N)n1 (some centres undefined) | 0.03 (≈ 0.0456 µM) |
| C=C(CO/N=C(\C(=O)N[C@@H]1C(=O)N2C(C(=O)O)=C(CNC(=O)c3cc(O)c(O)c(Br)c3)CSC12)c1csc(N)n1)C(=O)O (some centres undefined) | 0.06 (≈ 0.086 µM) |

system: Citrobacter freundii; experiment: microbe, parasite or virus in culture
Description: Minimum inhibitory concentration in Citrobacter freundii, DR 382031 constitutive depressed type 1

| Structure (SMILES) | MIC [µg/mL] |
| --- | --- |
| CCO/N=C(\C(=O)N[C@@H]1C(=O)N2C(C(=O)O)=C(CNC(=O)c3cn(CC)c4cc(O)c(O)cc4c3=O)CSC12)c1csc(N)n1 (some centres undefined) | 0.5 (≈ 0.76 µM) |
| C=C(CO/N=C(\C(=O)N[C@@H]1C(=O)N2C(C(=O)O)=C(CNC(=O)c3cc(O)c(O)c(Br)c3)CSC12)c1csc(N)n1)C(=O)O (some centres undefined) | 16 (≈ 22.9 µM) |

system: Providencia stuartii; experiment: microbe, parasite or virus in culture
Description: Minimum inhibitory concentration in Pseudomonas stuartii, I+442019 inducible type 1 lactamase producer

| Structure (SMILES) | MIC [µg/mL] |
| --- | --- |
| CCO/N=C(\C(=O)N[C@@H]1C(=O)N2C(C(=O)O)=C(CNC(=O)c3cn(CC)c4cc(O)c(O)cc4c3=O)CSC12)c1csc(N)n1 (some centres undefined) | 0.06 (≈ 0.0912 µM) |
| C=C(CO/N=C(\C(=O)N[C@@H]1C(=O)N2C(C(=O)O)=C(CNC(=O)c3cc(O)c(O)c(Br)c3)CSC12)c1csc(N)n1)C(=O)O (some centres undefined) | 0.03 (≈ 0.043 µM) |

system: Pseudomonas aeruginosa; experiment: microbe, parasite or virus in culture
Description: Minimum inhibitory concentration in Pseudomonas aeruginosa,799WT parent organism

| Structure (SMILES) | MIC [µg/mL] |
| --- | --- |
| CCO/N=C(\C(=O)N[C@@H]1C(=O)N2C(C(=O)O)=C(CNC(=O)c3cn(CC)c4cc(O)c(O)cc4c3=O)CSC12)c1csc(N)n1 (some centres undefined) | 0.015 (≈ 0.0228 µM) |
| C=C(CO/N=C(\C(=O)N[C@@H]1C(=O)N2C(C(=O)O)=C(CNC(=O)c3cc(O)c(O)c(Br)c3)CSC12)c1csc(N)n1)C(=O)O (some centres undefined) | 0.008 (≈ 0.0115 µM) |

system: Pseudomonas aeruginosa; experiment: microbe, parasite or virus in culture; remark: another data set of the same source
Description: Minimum inhibitory concentration in Pseudomonas aeruginosa, 18S inducible type 1 lactamase producer

| Structure (SMILES) | MIC [µg/mL] |
| --- | --- |
| CCO/N=C(\C(=O)N[C@@H]1C(=O)N2C(C(=O)O)=C(CNC(=O)c3cn(CC)c4cc(O)c(O)cc4c3=O)CSC12)c1csc(N)n1 (some centres undefined) | 0.008 (≈ 0.0122 µM) |
| C=C(CO/N=C(\C(=O)N[C@@H]1C(=O)N2C(C(=O)O)=C(CNC(=O)c3cc(O)c(O)c(Br)c3)CSC12)c1csc(N)n1)C(=O)O (some centres undefined) | 0.008 (≈ 0.0115 µM) |

system: Providencia stuartii; experiment: microbe, parasite or virus in culture; remark: another data set of the same source
Description: Minimum inhibitory concentration in Pseudomonas stuartii, DR 442049 constitutive depressed type 1 lactamase producer

| Structure (SMILES) | MIC [µg/mL] |
| --- | --- |
| CCO/N=C(\C(=O)N[C@@H]1C(=O)N2C(C(=O)O)=C(CNC(=O)c3cn(CC)c4cc(O)c(O)cc4c3=O)CSC12)c1csc(N)n1 (some centres undefined) | 2 (≈ 3.04 µM) |
| C=C(CO/N=C(\C(=O)N[C@@H]1C(=O)N2C(C(=O)O)=C(CNC(=O)c3cc(O)c(O)c(Br)c3)CSC12)c1csc(N)n1)C(=O)O (some centres undefined) | 2 (≈ 2.87 µM) |

system: Enterobacter cloacae; experiment: microbe, parasite or virus in culture; remark: another data set of the same source
Description: Minimum inhibitory concentration in Enterobacter cloacae, P99+ constitutive depressed type 1 lactamase producer

| Structure (SMILES) | MIC [µg/mL] |
| --- | --- |
| CCO/N=C(\C(=O)N[C@@H]1C(=O)N2C(C(=O)O)=C(CNC(=O)c3cn(CC)c4cc(O)c(O)cc4c3=O)CSC12)c1csc(N)n1 (some centres undefined) | 1 (≈ 1.52 µM) |
| C=C(CO/N=C(\C(=O)N[C@@H]1C(=O)N2C(C(=O)O)=C(CNC(=O)c3cc(O)c(O)c(Br)c3)CSC12)c1csc(N)n1)C(=O)O (some centres undefined) | 8 (≈ 11.5 µM) |

system: Enterobacter cloacae; experiment: microbe, parasite or virus in culture; remark: another data set of the same source
Description: Minimum inhibitory concentration in Enterobacter cloacae, DR 401108 constitutive depressed type 1 lactamase producer

| Structure (SMILES) | MIC [µg/mL] |
| --- | --- |
| CCO/N=C(\C(=O)N[C@@H]1C(=O)N2C(C(=O)O)=C(CNC(=O)c3cn(CC)c4cc(O)c(O)cc4c3=O)CSC12)c1csc(N)n1 (some centres undefined) | 32 (≈ 48.7 µM) |
| C=C(CO/N=C(\C(=O)N[C@@H]1C(=O)N2C(C(=O)O)=C(CNC(=O)c3cc(O)c(O)c(Br)c3)CSC12)c1csc(N)n1)C(=O)O (some centres undefined) | > 32 |

system: Staphylococcus aureus; experiment: microbe, parasite or virus in culture
Description: The compound was tested for minimum inhibitory concentration in Staphylococcus aureus,147N penicillin sensitive Staphylococcus aureus

| Structure (SMILES) | MIC [µg/mL] |
| --- | --- |
| CCO/N=C(\C(=O)N[C@@H]1C(=O)N2C(C(=O)O)=C(CNC(=O)c3cn(CC)c4cc(O)c(O)cc4c3=O)CSC12)c1csc(N)n1 (some centres undefined) | 1 (≈ 1.52 µM) |
| C=C(CO/N=C(\C(=O)N[C@@H]1C(=O)N2C(C(=O)O)=C(CNC(=O)c3cc(O)c(O)c(Br)c3)CSC12)c1csc(N)n1)C(=O)O (some centres undefined) | 16 (≈ 22.9 µM) |

system: Citrobacter freundii; experiment: microbe, parasite or virus in culture; remark: another data set of the same source
Description: Minimum inhibitory concentration in Citrobacter freundii, I+382010 inducible type 1 lactamase producer

| Structure (SMILES) | MIC [µg/mL] |
| --- | --- |
| CCO/N=C(\C(=O)N[C@@H]1C(=O)N2C(C(=O)O)=C(CNC(=O)c3cn(CC)c4cc(O)c(O)cc4c3=O)CSC12)c1csc(N)n1 (some centres undefined) | 0.008 (≈ 0.0122 µM) |
| C=C(CO/N=C(\C(=O)N[C@@H]1C(=O)N2C(C(=O)O)=C(CNC(=O)c3cc(O)c(O)c(Br)c3)CSC12)c1csc(N)n1)C(=O)O (some centres undefined) | 0.008 (≈ 0.0115 µM) |

system: Enterobacter cloacae; experiment: microbe, parasite or virus in culture; remark: another data set of the same source
Description: Minimum inhibitory concentration in Enterobacter cloacae, I+401029 inducible type 1 lactamase producer

| Structure (SMILES) | MIC [µg/mL] |
| --- | --- |
| CCO/N=C(\C(=O)N[C@@H]1C(=O)N2C(C(=O)O)=C(CNC(=O)c3cn(CC)c4cc(O)c(O)cc4c3=O)CSC12)c1csc(N)n1 (some centres undefined) | 0.015 (≈ 0.0228 µM) |
| C=C(CO/N=C(\C(=O)N[C@@H]1C(=O)N2C(C(=O)O)=C(CNC(=O)c3cc(O)c(O)c(Br)c3)CSC12)c1csc(N)n1)C(=O)O (some centres undefined) | 0.06 (≈ 0.086 µM) |

system: Staphylococcus aureus; experiment: microbe, parasite or virus in culture; remark: another data set of the same source
Description: The compound was tested for minimum inhibitory concentration in Staphylococcus aureus Oxford penicillin sensitive Staphylococcus aureus

| Structure (SMILES) | MIC [µg/mL] |
| --- | --- |
| CCO/N=C(\C(=O)N[C@@H]1C(=O)N2C(C(=O)O)=C(CNC(=O)c3cn(CC)c4cc(O)c(O)cc4c3=O)CSC12)c1csc(N)n1 (some centres undefined) | 2 (≈ 3.04 µM) |
| C=C(CO/N=C(\C(=O)N[C@@H]1C(=O)N2C(C(=O)O)=C(CNC(=O)c3cc(O)c(O)c(Br)c3)CSC12)c1csc(N)n1)C(=O)O (some centres undefined) | 16 (≈ 22.9 µM) |

system: Escherichia coli; experiment: microbe, parasite or virus in culture
Description: In vitro minimum inhibitory concentration against Escherichia coli (DC0 parent organism).

| Structure (SMILES) | MIC [µg/mL] |
| --- | --- |
| CCO/N=C(\C(=O)N[C@@H]1C(=O)N2C(C(=O)O)=C(CNC(=O)c3cn(CC)c4cc(O)c(O)cc4c3=O)CSC12)c1csc(N)n1 (some centres undefined) | 0.008 (≈ 0.0122 µM) |
| C=C(CO/N=C(\C(=O)N[C@@H]1C(=O)N2C(C(=O)O)=C(CNC(=O)c3cc(O)c(O)c(Br)c3)CSC12)c1csc(N)n1)C(=O)O (some centres undefined) | 0.008 (≈ 0.0115 µM) |

system: Pseudomonas aeruginosa; experiment: microbe, parasite or virus in culture; remark: another data set of the same source
Description: Minimum inhibitory concentration in Pseudomonas aeruginosa, 18SH constitutive depressed type 1 lactamase producer

| Structure (SMILES) | MIC [µg/mL] |
| --- | --- |
| CCO/N=C(\C(=O)N[C@@H]1C(=O)N2C(C(=O)O)=C(CNC(=O)c3cn(CC)c4cc(O)c(O)cc4c3=O)CSC12)c1csc(N)n1 (some centres undefined) | 0.25 (≈ 0.38 µM) |
| C=C(CO/N=C(\C(=O)N[C@@H]1C(=O)N2C(C(=O)O)=C(CNC(=O)c3cc(O)c(O)c(Br)c3)CSC12)c1csc(N)n1)C(=O)O (some centres undefined) | 0.05 (≈ 0.0717 µM) |

system: Escherichia coli; experiment: microbe, parasite or virus in culture; remark: another data set of the same source
Description: In vitro minimum inhibitory concentration against Escherichia coli (DC2 permeability mutant).

| Structure (SMILES) | MIC [µg/mL] |
| --- | --- |
| CCO/N=C(\C(=O)N[C@@H]1C(=O)N2C(C(=O)O)=C(CNC(=O)c3cn(CC)c4cc(O)c(O)cc4c3=O)CSC12)c1csc(N)n1 (some centres undefined) | 0.008 (≈ 0.0122 µM) |
| C=C(CO/N=C(\C(=O)N[C@@H]1C(=O)N2C(C(=O)O)=C(CNC(=O)c3cc(O)c(O)c(Br)c3)CSC12)c1csc(N)n1)C(=O)O (some centres undefined) | 0.008 (≈ 0.0115 µM) |

system: Pseudomonas aeruginosa; experiment: microbe, parasite or virus in culture; remark: another data set of the same source
Description: Minimum inhibitory concentration in Pseudomonas aeruginosa,799/61 permeability mutant

| Structure (SMILES) | MIC [µg/mL] |
| --- | --- |
| CCO/N=C(\C(=O)N[C@@H]1C(=O)N2C(C(=O)O)=C(CNC(=O)c3cn(CC)c4cc(O)c(O)cc4c3=O)CSC12)c1csc(N)n1 (some centres undefined) | 0.008 (≈ 0.0122 µM) |
| C=C(CO/N=C(\C(=O)N[C@@H]1C(=O)N2C(C(=O)O)=C(CNC(=O)c3cc(O)c(O)c(Br)c3)CSC12)c1csc(N)n1)C(=O)O (some centres undefined) | 0.008 (≈ 0.0115 µM) |

system: Pseudomonas aeruginosa; experiment: microbe, parasite or virus in culture; remark: another data set of the same source
Description: In vitro minimum inhibitory concentration against Pseudomonas aeruginosa (PU21).

| Structure (SMILES) | MIC [µg/mL] |
| --- | --- |
| CCO/N=C(\C(=O)N[C@@H]1C(=O)N2C(C(=O)O)=C(CNC(=O)c3cn(CC)c4cc(O)c(O)cc4c3=O)CSC12)c1csc(N)n1 (some centres undefined) | 0.06 (≈ 0.0912 µM) |
| C=C(CO/N=C(\C(=O)N[C@@H]1C(=O)N2C(C(=O)O)=C(CNC(=O)c3cc(O)c(O)c(Br)c3)CSC12)c1csc(N)n1)C(=O)O (some centres undefined) | 0.03 (≈ 0.043 µM) |
